What all share (test): inhibition of tumour cell growth, NCI panel, 48 h
The subject of assay [1] is A549 NSCLC.
The test system of assay [2] is OVCAR-5 ovarian.
In assay [3] the test system is HOP-92 NSCLC.
In assay [4] the test system is HT29 colon.
The test system of assay [5] is ACHN renal.
Assay [6] relates to T-47D breast.
Assay [7] deals with MALME-3M melanoma.
The subject of assay [8] is KM12 colon.
In assay [9] the test system is PC-3 prostate.
For assay [10], the system named is K-562 leukemia.

Values joined by “and” are separate entries in the source; they are usually repeats but may differ in a detail not shown here. Equal entries are not always repeated.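 Dose response: 5 concentrations. Exposure: 48 h. Format: 96-well plates. Endpoint: linear interpolation; highest concentration if not reached. GI50: concentration for 50% inhibition of growth. TGI: total growth inhibition.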

Regarding `CC1COCCN1CC#CCOC(=O)c1cc2ccccc2oc1=O` (stereo not given), the GI50 was greater than 100 µM in assay [1]; greater than 100 µM in [2]; 72.5 µM in assay [3]; greater than 100 µM in assay [4]; greater than 100 µM in assay [5]; greater than 100 µM in assay [6]. The GI50 in [7], in assay [8], in assay [9] and in assay [10] was greater than 100 µM throughout. Also, the TGI in assay [1], in assay [2], in assay [3], in assay [4], in [5] and in assay [6] was greater than 100 µM each time. Also, the TGI in [7], in [8], in assay [9] and in assay [10] was greater than 100 µM in each case.
As for `CCN(CCO)CCCOc1ccc2c(Nc3cc(CC(=O)Nc4cccc(F)c4)[nH]n3)ncnc2c1`, the GI50 in assay [1] is 20.5 µM; in [2], 42.3 µM; in assay [3], 10.6 µM; in assay [4] it was 13.4 µM; in [5] it was greater than 100 µM; in assay [6] it was 13.9 µM. Moreover, the GI50 in [7] was 8.04 µM; in assay [8], 3.45 µM and 0.82 µM; in assay [9], 17.7 µM; in [10] it was 8.89 µM. The TGI in [1] was greater than 100 µM; in assay [2], greater than 100 µM; in assay [3] it was 33.3 µM; in assay [4] it was 66.2 µM and > 10 µM; in [5] it was greater than 100 µM; in [6], 42.7 µM and > 2.45 µM. Also, the TGI in assay [7] was 26.8 µM; in [8], 16 µM and > 10 µM; in assay [9], greater than 64.8 µM; in [10], greater than 78.4 µM.
Consider `C[C@H](c1ccccc1)N(CCC(=O)O)C(=O)CCN(C(=O)CCN(C(=O)CCN[C@H](C)c1ccccc1)[C@H](C)c1ccccc1)[C@H](C)c1ccccc1`, for which the GI50 is greater than 100 µM in assay [1]; greater than 100 µM in [2]; 92 µM in assay [3]; greater than 100 µM in [4]; greater than 100 µM in assay [5]; greater than 100 µM in assay [6]. Also, the GI50 in assay [7], in assay [8], in [9] and in assay [10] was greater than 100 µM in each case. Further, the TGI in assay [1], in assay [2], in assay [3], in assay [4], in assay [5] and in [6] was greater than 100 µM each time. The TGI in assay [7], in assay [8], in assay [9] and in assay [10] was greater than 100 µM throughout.
For the molecule `COc1ccc2nc3cc(Cl)ccc3c(Nc3cc(C(C)C)c(O)cc3C)c2c1`, the GI50 in assay [1] is 2.26 µM; in [2], 3.03 µM; in [3] it was 1.16 µM; in assay [4], 2.31 µM; in assay [5] it was 2.22 µM; in assay [6], 1.92 µM. Further, the GI50 was 1.79 µM in [7], 2.2 µM in assay [8], 1.7 µM in assay [9] and 2.02 µM in assay [10]. The TGI in [1] was determined as 6.98 µM; in assay [2] it was 9.48 µM; in assay [3], 3.11 µM; in assay [4], 6.07 µM; in assay [5], 5.08 µM; in [6], 4.68 µM. Moreover, the TGI is 4.4 µM in assay [7], 4.67 µM in [8], 4.79 µM in [9] and greater than 100 µM in assay [10].
Turning to `CN1CCN(c2ccc(Nc3ncc4cc5n(c4n3)C3(CCCCC3)CNC5=O)nc2)CC1`, the GI50 in [1] was 1.47 µM; in assay [2], 0.491 µM; in assay [3], 1.27 µM; in assay [4], 0.397 µM; in assay [5], 0.847 µM; in assay [6], 4.15 µM. Moreover, the GI50 in [7] was 0.866 µM; in [8], 1.32 µM; in [9], 0.627 µM; in assay [10] it was 2.17 µM. For the same molecule, the TGI in assay [1] was 16.2 µM; in assay [2], 12.2 µM; in assay [3] it was 18.2 µM; in [4], 19.2 µM; in assay [5], 12.6 µM; in assay [6], greater than 100 µM. For the same molecule, the TGI in [7] came out at 15.4 µM; in [8], 21.9 µM; in assay [9], 28.9 µM; in [10], 18.4 µM.
For the molecule `c1cc2c(c(NC3=NCCN3)c1)CCCC2`, the TGI in assay [1], in [2], in [3], in assay [4], in assay [5] and in assay [6] was greater than 100 µM in each case. The TGI in assay [7], in assay [8], in assay [9] and in [10] was greater than 100 µM in each case.
For the molecule `COc1cc(-c2nn(-c3cccc(NC(=O)CCN4CCN(C)CC4)c3)cc2-c2ccncc2)ccc1Cl`, the GI50 in assay [1] is 1.4 µM; in assay [2] it was 2.06 µM; in assay [3], 0.675 µM; in assay [4], 0.371 µM; in assay [5], 1.61 µM; in assay [6], 2.34 µM. In addition, the GI50 in assay [7] was 0.847 µM; in assay [8], 1.36 µM; in assay [9], 0.995 µM; in [10], 0.73 µM. The TGI in assay [1] came out at 4.9 µM; in assay [2], 5.82 µM; in [3], 6.42 µM; in [4], 1.64 µM; in assay [5], 10.7 µM; in assay [6], 10.1 µM. Moreover, the TGI in [7] is 2.36 µM; in [8] it was 4.59 µM; in [9] it was 3.68 µM; in [10], 2.53 µM.
Regarding `O=c1c2cc(O)c(O)cc2oc2cc(O)c(C3OC(CO)C(O)C(O)C3O)c(O)c12` (stereo not given), the TGI in [1], in [2], in assay [3], in assay [4], in [5] and in [6] was greater than 100 µM each time. Besides, the TGI in [7], in assay [8], in [9] and in assay [10] was greater than 100 µM each time.
